Laboratory results from PubChem BioAssay (NCI).
“And” between values parts separate entries of the source, which are not always exact repeats. Identical values can stand only once.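 Results reflect a 48-hour exposure of cells in 96-well plates to compound at five concentrations. At the GI50, growth is halved. TGI denotes the concentration required for complete inhibition of growth.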

Tests used:
Assay in all cases: inhibition of tumour cell growth, NCI panel, 48 h
[1] = test system: UACC-257 melanoma
[2] = test system: SF-268 CNS
[3] = test system: SK-OV-3 ovarian
[4] = test system: CAKI-1 renal
[5] = test system: RXF 393 renal
[6] = test system: ACHN renal
[7] = test system: SNB-19 CNS
[8] = test system: SF-539 CNS
[9] = test system: HS 578T breast
[10] = test system: LOX IMVI melanoma

CC(C)O/C=C1\C(=O)C2(SCCS2)[C@H]2CCCC[C@@H]12
TGI [1]: > 100 µM
TGI [2]: > 100 µM
TGI [3]: > 100 µM
TGI [4]: > 100 µM
TGI [5]: 57.8 µM
TGI [6]: > 100 µM
TGI [7]: > 100 µM
TGI [8]: > 100 µM

Cn1cc(-c2csc(-c3cn(CCN4CCOCC4)c4ccc(F)cc34)n2)c2cccnc21
GI50 [1]: 4.54 µM
TGI [1]: 28.9 µM
GI50 [2]: 2.82 µM
TGI [2]: > 100 µM
GI50 [9]: 3.75 µM
TGI [9]: > 100 µM
GI50 [3]: 5.41 µM
TGI [3]: 51.6 µM
GI50 [5]: 2.58 µM
TGI [5]: 7.23 µM
GI50 [6]: 2.82 µM
TGI [6]: 12.9 µM
GI50 [7]: 3.93 µM
TGI [7]: > 100 µM
GI50 [8]: 3.16 µM
TGI [8]: 16.2 µM

Cc1cc2nc3ccc(N=Nc4ccc(N(C)C)cc4)cc3n(-c3ccccc3)c-2cc1=N
GI50 [10]: 0.0259 µM
TGI [10]: 0.117 µM
GI50 [2]: 0.0332 µM
TGI [2]: 0.26 µM
GI50 [9]: 0.0168 µM
TGI [9]: 0.0816 µM
GI50 [3]: 0.0305 µM
TGI [3]: 0.187 µM
GI50 [4]: 0.0369 µM
TGI [4]: 1.07 µM
GI50 [6]: 0.0233 µM and 0.21 µM
GI50 [7]: 0.0212 µM and 0.0731 µM
TGI [7]: 1.08 µM and 1.61 µM
GI50 [8]: 0.0226 µM
TGI [8]: 0.153 µM

CSc1nc(Cl)c(Br)c(Nc2c[nH]c(=O)[nH]c2=O)n1
TGI [10]: 39.3 µM
TGI [1]: 38.7 µM
TGI [3]: 42.7 µM
TGI [4]: 3.22 µM
TGI [5]: 45.4 µM
TGI [6]: 35.5 µM
TGI [7]: 44.9 µM
TGI [8]: 45.2 µM

O=C1c2cnccc2Cc2cccc3c2N1c1ccccc1S3
TGI [10]: 57.5 µM
TGI [1]: 59 µM
TGI [2]: > 100 µM
TGI [4]: 32.6 µM
TGI [5]: 65.3 µM
TGI [6]: 73.9 µM
TGI [7]: 74.6 µM
TGI [8]: 43.3 µM

CC(=O)Nc1ccc(-c2nnc(SCC(=O)Nc3ccccc3[N+](=O)[O-])o2)cc1
TGI [10]: > 100 µM
TGI [1]: > 100 µM
TGI [2]: > 100 µM
TGI [3]: > 100 µM
TGI [4]: > 100 µM
TGI [5]: > 100 µM
TGI [6]: > 100 µM
TGI [8]: > 100 µM

CC1SC2=NC3=C(c4ccccc4C3=O)C(c3ccc(Br)cc3)N2C1=O (stereo not drawn)
TGI [1]: > 100 µM
TGI [2]: > 100 µM
TGI [3]: > 100 µM
TGI [4]: > 100 µM
TGI [6]: > 100 µM
TGI [7]: > 100 µM

COc1ccc2nc(-c3ccccc3)cc(Nc3ccc(/C(C)=N/O)cc3)c2c1
GI50 [1]: 2.88 µM
TGI [1]: 7.78 µM
GI50 [2]: 3.39 µM
TGI [2]: > 23 µM
GI50 [9]: 2.24 µM
TGI [9]: 5.31 µM
GI50 [3]: 2.15 µM
TGI [3]: 5.22 µM
GI50 [4]: 2.5 µM
GI50 [6]: 14.1 µM
TGI [6]: 29.3 µM
GI50 [7]: 5.38 µM
TGI [7]: > 100 µM
GI50 [8]: 0.35 µM
TGI [8]: 3.05 µM

N/C(=N\OC(=O)NC(Cl)=C(Cl)Cl)c1cc(C(F)(F)F)cc(C(F)(F)F)c1
TGI [10]: 31.8 µM
TGI [1]: 31.1 µM
TGI [2]: 45.6 µM
TGI [3]: 84.4 µM
TGI [4]: 33.8 µM
TGI [6]: 27.4 µM
TGI [7]: 50.5 µM
TGI [8]: 29.9 µM

COc1ccc(S(=O)(=O)O)cc1NS(=O)(=O)c1ccc(C)cc1
TGI [10]: > 100 µM
TGI [1]: > 100 µM
TGI [2]: > 100 µM
TGI [9]: > 100 µM
TGI [3]: > 100 µM
TGI [4]: > 100 µM
TGI [6]: > 100 µM
TGI [7]: > 100 µM
TGI [8]: > 100 µM

CC(C)[C@@H](C(=O)O[C@@H]1/C=C/C(=O)O[C@@H](C)CCC/C=C/[C@@H]2C[C@H](O)C[C@H]21)[N+](C)(C)C
GI50 [10]: > 100 µM
TGI [10]: > 100 µM
GI50 [1]: > 100 µM
TGI [1]: > 100 µM
GI50 [2]: > 100 µM
TGI [2]: > 100 µM
GI50 [9]: > 100 µM
TGI [9]: > 100 µM
GI50 [3]: > 100 µM
TGI [3]: > 100 µM
GI50 [4]: > 100 µM
TGI [4]: > 100 µM
GI50 [6]: > 100 µM
TGI [6]: > 100 µM
GI50 [7]: > 100 µM
TGI [7]: > 100 µM
GI50 [8]: > 100 µM
TGI [8]: > 100 µM

Cn1cc2ccccc2c1-c1nc(F)nc(Oc2ccc3c(c2)CC[C@@H]2C3CC[C@]3(C)C(O)CCC23)n1 (stereo partly drawn)
TGI [10]: 36.9 µM
TGI [1]: 36.3 µM
TGI [2]: 35.1 µM
TGI [3]: 36.3 µM
TGI [5]: 72.3 µM
TGI [6]: 34.1 µM
TGI [7]: 34.7 µM
TGI [8]: 32.7 µM

O=C1C=C(N2CC2)c2ccccc2C1=O
GI50 [10]: 2.11 µM
TGI [10]: 13 µM
GI50 [1]: 1.69 µM
TGI [1]: 3.1 µM
GI50 [2]: 1.79 µM
TGI [2]: 3.71 µM
GI50 [3]: 1.92 µM
TGI [3]: 3.41 µM
GI50 [5]: 1.64 µM
TGI [5]: 3.08 µM
GI50 [6]: 1.58 µM
TGI [6]: 2.96 µM
GI50 [7]: 1.83 µM
TGI [7]: 3.35 µM
GI50 [8]: 1.83 µM
TGI [8]: 3.34 µM

CSc1nc2c(nc(N)n2C2OCC(O)C(O)C2O)c(=O)[nH]1 (stereo not drawn)
TGI [10]: > 100 µM
TGI [1]: > 100 µM
TGI [2]: > 100 µM
TGI [3]: > 100 µM
TGI [4]: > 100 µM
TGI [5]: > 100 µM
TGI [6]: > 100 µM
TGI [7]: > 100 µM
TGI [8]: > 100 µM

O=C1C2Cc3ccccc3CN2C(=O)N1CN1CCN(CN2C(=O)C3Cc4ccccc4CN3C2=O)CC1 (stereo not drawn)
TGI [10]: > 100 µM
TGI [1]: > 100 µM
TGI [2]: > 100 µM
TGI [3]: > 100 µM
TGI [4]: > 100 µM
TGI [5]: > 100 µM
TGI [6]: > 100 µM
TGI [7]: > 100 µM
TGI [8]: > 100 µM

Cc1cn(C2C=CC(=O)C(C)O2)c(=O)[nH]c1=O (stereo not drawn)
TGI [10]: 26.6 µM
TGI [1]: 27.8 µM
TGI [2]: 33.5 µM
TGI [3]: > 100 µM
TGI [4]: 31.5 µM
TGI [6]: 31.3 µM
TGI [7]: 43.9 µM
TGI [8]: 32.8 µM

COc1ccc(CNc2nc3ccccc3nc2-c2cccs2)cc1OC
TGI [1]: > 100 µM
TGI [2]: > 100 µM
TGI [5]: > 100 µM
TGI [6]: > 100 µM
TGI [7]: > 100 µM
TGI [8]: > 100 µM

O=C(N/C(=C\c1ccc([N+](=O)[O-])cc1)c1nc2[nH]c(=S)[nH]c(=O)c2[nH]1)c1ccccc1
TGI [2]: > 100 µM
TGI [3]: > 100 µM
TGI [4]: > 100 µM
TGI [5]: > 100 µM
TGI [6]: > 100 µM
TGI [7]: > 100 µM
TGI [8]: > 100 µM

COc1cc(C)c(C(=O)/C=C/c2cc(OC)c(O)c(OC)c2)cc1O
TGI [10]: > 100 µM
TGI [1]: > 100 µM
TGI [2]: 78.4 µM
TGI [3]: 85.1 µM
TGI [4]: > 100 µM
TGI [6]: > 100 µM
TGI [7]: 44.5 µM
TGI [8]: 93.1 µM

O=C1Nc2ccccc2C12CC(c1ccccc1)=NN2 (stereo not drawn)
GI50 [10]: 6.46 µM
TGI [10]: 87.4 µM
GI50 [1]: 5.02 µM
TGI [1]: > 100 µM
GI50 [2]: 11.9 µM
TGI [2]: > 100 µM
GI50 [3]: 9.12 µM
TGI [3]: > 100 µM
GI50 [4]: 7.57 µM
TGI [4]: > 100 µM
GI50 [5]: 3.78 µM
TGI [5]: 36.6 µM
GI50 [6]: 6.48 µM
TGI [6]: > 100 µM
GI50 [7]: 12.7 µM
TGI [7]: > 100 µM
GI50 [8]: 3.4 µM
TGI [8]: 15 µM
